Measured values published in patent US9255093B2, “Polycyclic HERG activators” (NOVARTIS AG, priority 2014, dated 2016).
Marks after values point to notes of the source that are not given here.

Biological target: hERG (human ether-a-go-go-related gene) potassium channel (Homo sapiens, UniProt Q12809)
Assay: QPatch automated patch-clamp hERG activator 4-concentration EC50 assay
Conditions: increase of hERG tail current amplitude at 7 second (TL7), hERG stably expressed in CHO cells; for % change@TL7 (*@3.3 uM): 3.3 uM (footnote *)

Sequence of hERG (human ether-a-go-go-related gene) potassium channel (Q12809 whole entry): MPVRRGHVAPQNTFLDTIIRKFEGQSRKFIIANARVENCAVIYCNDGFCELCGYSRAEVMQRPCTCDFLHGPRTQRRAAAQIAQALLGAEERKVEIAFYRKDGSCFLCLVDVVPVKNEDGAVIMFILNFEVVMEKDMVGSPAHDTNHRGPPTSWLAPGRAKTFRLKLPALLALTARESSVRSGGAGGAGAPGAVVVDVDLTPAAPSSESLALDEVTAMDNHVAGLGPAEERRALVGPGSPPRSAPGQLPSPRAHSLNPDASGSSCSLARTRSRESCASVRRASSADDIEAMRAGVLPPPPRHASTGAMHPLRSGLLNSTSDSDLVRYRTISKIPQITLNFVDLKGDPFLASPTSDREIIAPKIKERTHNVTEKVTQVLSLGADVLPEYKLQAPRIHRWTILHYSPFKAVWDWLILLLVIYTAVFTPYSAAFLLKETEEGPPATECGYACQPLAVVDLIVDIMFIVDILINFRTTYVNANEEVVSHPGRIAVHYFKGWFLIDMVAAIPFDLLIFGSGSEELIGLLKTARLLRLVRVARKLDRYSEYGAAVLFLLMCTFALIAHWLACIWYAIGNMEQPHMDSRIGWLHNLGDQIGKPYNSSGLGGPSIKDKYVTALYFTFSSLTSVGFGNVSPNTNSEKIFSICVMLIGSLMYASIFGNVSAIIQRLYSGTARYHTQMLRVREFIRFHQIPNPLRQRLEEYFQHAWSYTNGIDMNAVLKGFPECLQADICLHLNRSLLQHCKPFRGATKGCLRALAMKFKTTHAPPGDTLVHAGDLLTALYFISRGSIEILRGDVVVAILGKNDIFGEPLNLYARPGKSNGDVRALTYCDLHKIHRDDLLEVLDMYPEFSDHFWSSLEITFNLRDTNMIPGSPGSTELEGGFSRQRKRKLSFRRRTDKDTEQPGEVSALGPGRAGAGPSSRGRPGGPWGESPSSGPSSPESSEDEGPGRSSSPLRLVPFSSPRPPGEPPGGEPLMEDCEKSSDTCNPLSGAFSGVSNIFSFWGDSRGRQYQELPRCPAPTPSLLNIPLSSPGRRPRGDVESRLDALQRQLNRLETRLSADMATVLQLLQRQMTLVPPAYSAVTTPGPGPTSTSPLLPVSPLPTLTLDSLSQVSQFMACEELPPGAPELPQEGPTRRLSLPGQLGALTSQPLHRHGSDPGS

FC(F)(F)Oc1cc(Cl)cc(NCc2cc3oc(-c4nnn[nH]4)cc3cc2Cl)c1 [Example 212]
% change@TL7@10 uM: 116%

FC(F)(F)Oc1cc(Cl)cc(NCc2ccc3oc(-c4nnn[nH]4)cc3c2)c1 [Example 75]
% change@TL7@10 uM: 123%

O=C(O)c1cc2ccc(CNc3ccc(C(F)(F)F)cn3)cc2o1 [Example 112]
% change@TL7@10 uM: 53%

CC(C)Oc1ccc(NCc2cc3oc(-c4nnn[nH]4)cc3cc2Cl)cc1C(F)(F)F [Example 18]
% change@TL7@10 uM: 409%

FC(F)(F)Sc1ccc(NCc2ccc3oc(-c4nnn[nH]4)cc3c2)cc1Cl [Example 64]
% change@TL7@10 uM: 348%

FC(F)Oc1ccc(NCc2ccc3cc(-c4nn[nH]n4)oc3c2)cc1Cl [Example 17]
% change@TL7@10 uM: 477%

Fc1cc2oc(-c3nnn[nH]3)cc2cc1CNc1ccc(Cl)c(Cl)c1 [Example 129]
% change@TL7@10 uM: 154%

Fc1cc2cc(-c3nnn[nH]3)oc2cc1CNc1ccc(C(F)(F)F)c(Cl)c1 [Example 196]
% change@TL7@10 uM: 169%

Fc1cc2cc(-c3nnn[nH]3)oc2cc1CNc1ccc(Cl)c(C(F)(F)F)c1 [Example 150]
% change@TL7@10 uM: 218%

FC(F)(F)c1cc(NCc2cc3cc(-c4nnn[nH]4)oc3cc2Cl)cc(C(F)(F)F)c1Br [Example 137]
% change@TL7@10 uM: 166%

FC(F)(F)c1ccc(NCc2ccc3cc(-c4nn[nH]n4)oc3c2)cc1Br [Example 3]
% change@TL7 (*@3.3 uM): 121* %

CSc1cccc(NCc2ccc3cc(-c4nn[nH]n4)oc3c2)c1 [Example 28]
% change@TL7@10 uM: 260%

FC(F)Oc1c(Br)cc(NCc2ccc3cc(-c4nn[nH]n4)oc3c2)cc1Br [Example 4]
% change@TL7 (*@3.3 uM): 155* %

FC(F)(F)c1ccc(NCc2cc3oc(-c4nnn[nH]4)cc3cc2Cl)cc1C(F)(F)F [Example 14]
% change@TL7@10 uM: 196%

FC(F)(F)Oc1ccc(NCc2ccc3cc(-c4nn[nH]n4)oc3c2)cc1 [Example 63]
% change@TL7@10 uM: 34%

FC(F)(F)c1ccc(NCc2cc3cc(-c4nnn[nH]4)oc3cc2Cl)cc1Cl [Example 138]
% change@TL7@10 uM: 196%

CC(C)c1ccc(NCc2cc3oc(-c4nnn[nH]4)cc3cc2F)cc1Br [Example 160]
% change@TL7@10 uM: 347%

O=C(O)c1cc2ccc(CNc3ccc(OC(F)(F)F)c(Cl)c3)cc2o1 [Example 88]
% change@TL7@10 uM: 274%

Fc1c(CNc2cc(C(F)(F)F)c(Br)c(C(F)(F)F)c2)ccc2oc(-c3nnn[nH]3)cc12 [Example 143]
% change@TL7@10 uM: 193%

Fc1cc2cc(-c3nnn[nH]3)oc2cc1CNc1ccc(C(F)(F)F)c(F)c1 [Example 203]
% change@TL7@10 uM: 136%

CCOc1c(F)cc(NCc2ccc3cc(-c4nn[nH]n4)oc3c2)cc1Br [Example 2]
% change@TL7 (*@3.3 uM): 126* %

CCOc1ccc(NCc2cc3oc(-c4nnn[nH]4)cc3cc2Cl)cc1C(F)(F)F [Example 10]
% change@TL7@10 uM: 285%

O=C(O)c1cc2ccc(CNc3ccc(OC(F)(F)F)c(Br)c3)cc2o1 [Example 90]
% change@TL7@10 uM: 247%

CCOc1ccc(NCc2cc3oc(-c4nnn[nH]4)cc3cc2F)cc1C(F)(F)F [Example 161]
% change@TL7@10 uM: 288%

O=C(O)c1cc2cc(Cl)c(CNc3ccc(OC(F)F)c(C(F)(F)F)c3)cc2o1 [Example 223]
% change@TL7@10 uM: 176%

CCc1ccc(NCc2ccc3oc(C(=O)O)cc3c2)cc1C(F)(F)F [Example 124]
% change@TL7@10 uM: 167%

O=C(O)c1cc2ccc(CNc3ccc(C(=O)C(F)(F)F)cc3)cc2o1 [Example 103]
% change@TL7@10 uM: 112%

CSc1ccc(NCc2ccc3cc(C(=O)O)oc3c2)cc1C(F)(F)F [Example 96]
% change@TL7@10 uM: 185%

FC(F)(F)COc1ccc(NCc2ccc3cc(-c4nn[nH]n4)oc3c2)cc1Cl [Example 44]
% change@TL7@10 uM: 146%

CCCc1cc(NCc2ccc3oc(-c4nnn[nH]4)cc3c2)ccc1Cl [Example 68]
% change@TL7@10 uM: 224%

O=C(O)c1oc2cc(CNc3ccc(OC(F)(F)F)c(Br)c3)ccc2c1C(F)(F)F [Example 107]
% change@TL7@10 uM: 85%

CC(Nc1ccc(OC(F)(F)F)c(Cl)c1)c1ccc2oc(-c3nnn[nH]3)cc2c1 (stereo not drawn) [Example 77]
% change@TL7@10 uM: 118%

CC(C)Oc1ccc(NCc2ccc3c(C(F)(F)F)c(-c4nnn[nH]4)oc3c2)cc1C(F)(F)F [Example 57]
% change@TL7@10 uM: 76%

N#CCOc1ccc(NCc2ccc3cc(-c4nnn[nH]4)oc3c2Cl)cc1C(F)(F)F [Example 210]
% change@TL7@10 uM: 134%

Fc1cc2oc(-c3nnn[nH]3)cc2cc1CNc1ccc(OC(F)(F)F)c(C(F)(F)F)c1 [Example 130]
% change@TL7@10 uM: 220%

Fc1cc(NCc2ccc3cc(-c4nn[nH]n4)oc3c2)ccc1OC(F)(F)F [Example 43]
% change@TL7@10 uM: 148%

O=C(O)c1cc2ccc(CNc3cc(C(F)(F)F)cc(C(F)(F)F)c3)cc2o1 [Example 116]
% change@TL7@10 uM: 31%

O=C(O)c1cc2ccc(CNc3cc(Cl)c(Cl)c(Cl)c3)cc2o1 [Example 86]
% change@TL7@10 uM: 381%

CC(Nc1ccc2c(c1)OC(F)(F)O2)c1ccc2oc(-c3nnn[nH]3)cc2c1 (stereo not drawn) [Example 83]
% change@TL7@10 uM: 36%

CC(C)Oc1ccc(NCc2cc3oc(-c4nnn[nH]4)cc3cc2F)cc1C(F)(F)F [Example 163]
% change@TL7@10 uM: 250%

FC(F)(F)c1ccc(NCc2ccc3cc(-c4nn[nH]n4)oc3c2)cc1C(F)(F)F [Example 52]
% change@TL7@10 uM: 95%

O=C(O)c1cc2cc(F)c(CNc3ccc(OC(F)F)c(C(F)(F)F)c3)cc2o1 [Example 230]
% change@TL7@10 uM: 244%

O=C(O)c1cc2ccc(CNc3ccc(OCC(F)(F)F)c(C(F)(F)F)c3)cc2o1 [Example 118]
% change@TL7@10 uM: 27%

CCCc1c(C)cc(NCc2ccc3oc(-c4nnn[nH]4)cc3c2)cc1Cl [Example 69]
% change@TL7@10 uM: 221%

O=C(O)c1cc2cc(CNc3cc(Cl)c(Cl)c(Cl)c3)ccc2o1 [Example 120]
% change@TL7@10 uM: 282%

Cc1cc2cc(NCc3ccc4cc(-c5nn[nH]n5)oc4c3)cc(Cl)c2o1 [Example 194]
% change@TL7@10 uM: 205%

CC(Nc1ccc(SC(F)(F)F)c(Cl)c1)c1ccc2oc(-c3nnn[nH]3)cc2c1 (stereo not drawn) [Example 74]
% change@TL7@10 uM: 124%

Fc1cc2cc(-c3nnn[nH]3)oc2cc1CNc1ccc(C(F)(F)F)c(Br)c1 [Example 177]
% change@TL7 (*@3.3 uM): 215* %

FC(F)(F)Sc1ccc(NCc2ccc3cc(-c4nn[nH]n4)oc3c2)cc1Cl [Example 20]
% change@TL7@10 uM: 340%

N#CCOc1ccc(NCc2cc3oc(-c4nnn[nH]4)cc3cc2Cl)cc1C(F)(F)F [Example 29]
% change@TL7@10 uM: 258%

Clc1ccc(NCc2ccc3cc(-c4nn[nH]n4)oc3c2)cc1Br [Example 182]
% change@TL7@10 uM: 249%

FC(F)(F)Oc1ccc(NCc2ccc3cc(-c4nn[nH]n4)oc3c2)cc1C(F)(F)F [Example 23]
% change@TL7@10 uM: 290%

COc1cc2cc(-c3nnn[nH]3)oc2cc1CNc1ccc(OCC(F)(F)F)c(C(F)(F)F)c1 [Example 153]
% change@TL7@10 uM: 381%

CCCc1ccc(NCc2ccc3oc(-c4nnn[nH]4)c(C)c3c2)cc1C(F)(F)F [Example 82]
% change@TL7@10 uM: 39%

O=C(O)c1cc2ccc(CNc3cc(Br)c(Br)c(Br)c3)cc2o1 [Example 85]
% change@TL7@10 uM: 397%

CCCc1ccc(NCc2ccc3oc(-c4nnn[nH]4)cc3c2)cc1F [Example 79]
% change@TL7@10 uM: 101%

O=C(O)c1cc2ccc(CNc3ccc(C(F)(F)F)c(C(F)(F)F)c3)cc2o1 [Example 101]
% change@TL7@10 uM: 156%
